# Tested on: 3eCIS (MsCYP72056)
# Details: 250 µM NADPH; HEPES pH 7.5; 0-300 µM hirsuteine; CPR co-expressed
structure (smiles),measurement,value
C=C[C@H]1CN2CCc3c([nH]c4ccccc34)[C@H]2C[C@@H]1/C(=C\OC)C(=O)OC [hirsuteine],Km,68.3 µM

# — PMC9936145, “Discovery of a cytochrome P450 enzyme catalyzing the formation of spirooxindole alkaloid scaffold” (Frontiers in Plant Science, 2023)
